# Source: PubChem BioAssay AID1963868 (Molecular Pharmacology Branch, DTP, NCI, 2024)
# Where “and” joins values, the source holds several entries; their conditions need not be identical. Identical values can stand only once.
# Test system: KRAS PDC tumor spheroids (HUVEC+MSC), viability
# Assay: Anticancer human tumor 254851-301-R-J1-PDC patient-derived colon carcinoma cell line growth inhibition [KRAS2]
# Settings: for viability, T/C: stronger effect = lower value
# Summary of the method: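 Combination screen of spheroid viability in tumor-cell co-cultures with endothelial (HUVEC) and mesenchymal stem cell stroma. Each agent was tested in half-log dilutions, topping at clinical Cmax or at 10 microM without a known Cmax.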
# [1] = curve of first compound, second compound 0.1 µM
# [2] = curve of first compound, second compound 0.316 µM
# [3] = curve of first compound, second compound 1 µM
# [4] = curve of first compound, second compound 3.16 µM
# [5] = curve of first compound, second compound 10 µM
# [6] = second compound 0.1 µM, first compound 0.000316 µM
# [7] = second compound 0.1 µM, first compound 0.001 µM
# [8] = second compound 0.1 µM, first compound 0.00316 µM
# [9] = second compound 0.1 µM, first compound 0.01 µM
# [10] = second compound 0.1 µM, first compound 0.0316 µM
# [11] = second compound 0.1 µM, first compound 0.1 µM
# [12] = second compound 0.316 µM, first compound 0.000316 µM
# [13] = second compound 0.316 µM, first compound 0.001 µM
# [14] = second compound 0.316 µM, first compound 0.00316 µM
# [15] = second compound 0.316 µM, first compound 0.01 µM
# [16] = second compound 0.316 µM, first compound 0.0316 µM
# [17] = second compound 0.316 µM, first compound 0.1 µM
# [18] = second compound 1 µM, first compound 0.000316 µM
# [19] = second compound 1 µM, first compound 0.001 µM
# [20] = second compound 1 µM, first compound 0.00316 µM
# [21] = second compound 1 µM, first compound 0.01 µM
# [22] = second compound 1 µM, first compound 0.0316 µM
# [23] = second compound 1 µM, first compound 0.1 µM
# [24] = second compound 3.16 µM, first compound 0.000316 µM
# [25] = second compound 3.16 µM, first compound 0.001 µM
# [26] = second compound 3.16 µM, first compound 0.00316 µM
# [27] = second compound 3.16 µM, first compound 0.01 µM
# [28] = second compound 3.16 µM, first compound 0.0316 µM
# [29] = second compound 3.16 µM, first compound 0.1 µM
# [30] = second compound 10 µM, first compound 0.000316 µM
# [31] = second compound 10 µM, first compound 0.001 µM
# [32] = second compound 10 µM, first compound 0.00316 µM
# [33] = second compound 10 µM, first compound 0.01 µM
# [34] = second compound 10 µM, first compound 0.0316 µM
# [35] = second compound 10 µM, first compound 0.1 µM
# [36] = second compound 0.1 µM, first compound 0.316 µM
# [37] = second compound 0.1 µM, first compound 1 µM
# [38] = second compound 0.1 µM, first compound 3.16 µM
# [39] = second compound 0.316 µM, first compound 0.316 µM
# [40] = second compound 0.316 µM, first compound 1 µM
# [41] = second compound 0.316 µM, first compound 3.16 µM
# [42] = second compound 1 µM, first compound 0.316 µM
# [43] = second compound 1 µM, first compound 1 µM
# [44] = second compound 1 µM, first compound 3.16 µM
# [45] = second compound 3.16 µM, first compound 0.316 µM
# [46] = second compound 3.16 µM, first compound 1 µM
# [47] = second compound 3.16 µM, first compound 3.16 µM
# [48] = second compound 10 µM, first compound 0.316 µM
# [49] = second compound 10 µM, first compound 1 µM
# [50] = second compound 10 µM, first compound 3.16 µM
# 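Also: spheroids exposed to compounds for seven days before readout.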
# 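For viability, T/C in this document: 100% = DMSO vehicle control luminescence of the spheroids.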
structure (smiles),measurement,setting,value
CC(C)n1nc(-c2ccc3oc(N)nc3c2)c2c(N)ncnc21,"viability, T/C",compound 0.000316 µM,107% [middle of 5 runs]
same,"viability, T/C",compound 0.001 µM,99.5% (2×) and 104% (2×) and 101%
same,"viability, T/C",compound 0.00316 µM,92.6% [middle of 5 runs]
same,"viability, T/C",compound 0.01 µM,63.2% [middle of 5 runs]
same,"viability, T/C",compound 0.0316 µM,33.3% [middle of 5 runs]
same,"viability, T/C",compound 0.1 µM,24.5% [middle of 5 runs]
same,IC50,curve of compound,18.9 nM [middle of 4 runs]
Cn1ncnc1[C@H]1c2n[nH]c(=O)c3cc(F)cc(c23)N[C@@H]1c1ccc(F)cc1 + COc1cc2nc(C)nc(NC(C)c3cc(N)cc(C(F)(F)F)c3)c2cc1OC1CCOC1,IC50,[1],> 100 nM
same,IC50,[2],> 100 nM
same,IC50,[3],> 100 nM
same,IC50,[4],> 100 nM
same,IC50,[5],> 100 nM
same,"viability, T/C",[6],111%
same,"viability, T/C",[7],95.6%
same,"viability, T/C",[8],104%
same,"viability, T/C",[9],100%
same,"viability, T/C",[10],99.6%
same,"viability, T/C",[11],101%
same,"viability, T/C",[12],95.9%
same,"viability, T/C",[13],100%
same,"viability, T/C",[14],93.5%
same,"viability, T/C",[15],80.9%
same,"viability, T/C",[16],84.8%
same,"viability, T/C",[17],89.5%
same,"viability, T/C",[18],86.9%
same,"viability, T/C",[19],81.6%
same,"viability, T/C",[20],83.1%
same,"viability, T/C",[21],86.4%
same,"viability, T/C",[22],85.9%
same,"viability, T/C",[23],81.3%
same,"viability, T/C",[24],86.5%
same,"viability, T/C",[25],83.8%
same,"viability, T/C",[26],95.9%
same,"viability, T/C",[27],86%
same,"viability, T/C",[28],87.2%
same,"viability, T/C",[29],80.9%
same,"viability, T/C",[30],77.9%
same,"viability, T/C",[31],83%
same,"viability, T/C",[32],80.8%
same,"viability, T/C",[33],78.1%
same,"viability, T/C",[34],69.2%
same,"viability, T/C",[35],74.7%
Cn1nccc1Nc1nccc(-c2cc3c(s2)C(C)(C)N(CCN2CCOCC2)C3=O)n1 + C=CC(=O)N1CCN(c2nc(=O)n(-c3c(C)ccnc3C(C)C)c3nc(-c4c(O)cccc4F)c(F)cc23)C(C)C1,IC50,[1],2760 nM
same,IC50,[2],3750 nM
same,IC50,[3],2570 nM
same,IC50,[4],1910 nM
same,IC50,[5],3100 nM
same,"viability, T/C",[10],87.5%
same,"viability, T/C",[11],94.5%
same,"viability, T/C",[36],94.5%
same,"viability, T/C",[37],96.8%
same,"viability, T/C",[38],44.1%
same,"viability, T/C","second compound 0.1 µM, first compound 10 µM",4.13%
same,"viability, T/C",[16],102%
same,"viability, T/C",[17],92.2%
same,"viability, T/C",[39],102%
same,"viability, T/C",[40],88%
same,"viability, T/C",[41],58.2%
same,"viability, T/C","second compound 0.316 µM, first compound 10 µM",4.04%
same,"viability, T/C",[22],95.5%
same,"viability, T/C",[23],91.2%
same,"viability, T/C",[42],91.9%
same,"viability, T/C",[43],79.5%
same,"viability, T/C",[44],43.5%
same,"viability, T/C","second compound 1 µM, first compound 10 µM",5.08%
same,"viability, T/C",[28],73.7%
same,"viability, T/C",[29],82.7%
same,"viability, T/C",[45],78.6%
same,"viability, T/C",[46],77.6%
same,"viability, T/C",[47],28.6%
same,"viability, T/C","second compound 3.16 µM, first compound 10 µM",3.74%
same,"viability, T/C",[34],97.1%
same,"viability, T/C",[35],97.1%
same,"viability, T/C",[48],79.7%
same,"viability, T/C",[49],74.9%
same,"viability, T/C",[50],51.5%
same,"viability, T/C","second compound 10 µM, first compound 10 µM",4.35%
CC(=O)OC12COC1CC(O)C1(C)C(=O)C(O)C3=C(C)C(OC(=O)C(O)C(NC(=O)OC(C)(C)C)c4ccccc4)CC(O)(C(OC(=O)c4ccccc4)C21)C3(C)C (configuration not stated) + CNCc1ccccc1-c1csc(C(C)Nc2nc(C)nc3cc(OC)c(OC)cc23)c1,IC50,[1],176 nM
same,IC50,[2],126 nM
same,IC50,[3],184 nM
same,IC50,[4],22.7 nM
same,IC50,[5],< 10 nM
same,"viability, T/C",[9],101%
same,"viability, T/C",[10],86.3%
same,"viability, T/C",[11],62.6%
same,"viability, T/C",[36],37.7%
same,"viability, T/C",[37],26.1%
same,"viability, T/C",[38],25.3%
same,"viability, T/C",[15],90%
same,"viability, T/C",[16],79.9%
same,"viability, T/C",[17],55.7%
same,"viability, T/C",[39],30.4%
same,"viability, T/C",[40],25.5%
same,"viability, T/C",[41],25.4%
same,"viability, T/C",[21],81.3%
same,"viability, T/C",[22],80.5%
same,"viability, T/C",[23],61.5%
same,"viability, T/C",[42],39.8%
same,"viability, T/C",[43],25.3%
same,"viability, T/C",[44],24%
same,"viability, T/C",[27],77%
same,"viability, T/C",[28],38.9%
same,"viability, T/C",[29],9.76%
same,"viability, T/C",[45],13.6%
same,"viability, T/C",[46],0.92%
same,"viability, T/C",[47],23.3%
same,"viability, T/C",[33],1.07%
same,"viability, T/C",[34],0.14%
same,"viability, T/C",[35],1.91%
same,"viability, T/C",[48],0.55%
same,"viability, T/C",[49],24.2%
same,"viability, T/C",[50],0.21%
CC(=O)Nc1cccc(-n2c(=O)n(C3CC3)c(=O)c3c(Nc4ccc(I)cc4F)n(C)c(=O)c(C)c32)c1 + C=CC(=O)N1CCN(c2nc(=O)n(-c3c(C)ccnc3C(C)C)c3nc(-c4c(O)cccc4F)c(F)cc23)C(C)C1,IC50,[1],6.27 nM
same,IC50,[2],5.14 nM
same,IC50,[3],6.52 nM
same,IC50,[4],6.44 nM
same,IC50,[5],5.08 nM
same,"viability, T/C","second compound 0.1 µM, first compound 0.0001 µM",104%
same,"viability, T/C",[6],105%
same,"viability, T/C",[7],89.5%
same,"viability, T/C",[8],84.4%
same,"viability, T/C",[9],27.2%
same,"viability, T/C",[10],3.31%
same,"viability, T/C","second compound 0.316 µM, first compound 0.0001 µM",102%
same,"viability, T/C",[12],103%
same,"viability, T/C",[13],87.9%
same,"viability, T/C",[14],77.4%
same,"viability, T/C",[15],13%
same,"viability, T/C",[16],3.29%
same,"viability, T/C","second compound 1 µM, first compound 0.0001 µM",102%
same,"viability, T/C",[18],96.6%
same,"viability, T/C",[19],93.9%
same,"viability, T/C",[20],74.3%
same,"viability, T/C",[21],35.5%
same,"viability, T/C",[22],3.32%
same,"viability, T/C","second compound 3.16 µM, first compound 0.0001 µM",98.5%
same,"viability, T/C",[24],99.4%
same,"viability, T/C",[25],85.1%
same,"viability, T/C",[26],77%
same,"viability, T/C",[27],34%
same,"viability, T/C",[28],3.35%
same,"viability, T/C","second compound 10 µM, first compound 0.0001 µM",105%
same,"viability, T/C",[30],105%
same,"viability, T/C",[31],96.9%
same,"viability, T/C",[32],75%
same,"viability, T/C",[33],14.6%
same,"viability, T/C",[34],3.11%
